{"source": "paper PMC8860869", "about": "(Chemical research in toxicology, 2022)", "assay_in_all_cases": "cross-linking in cells, immunoblot", "type_in_all_cases": "cell-based", "conditions_in_all_cases": "covalent; living yeast, toxic concentrations", "key": {"[1]": {"molecular_target": "T1, Pdi1 (Saccharomyces cerevisiae, UniProt P17967)", "T1 sequence (P17967 29-522)": "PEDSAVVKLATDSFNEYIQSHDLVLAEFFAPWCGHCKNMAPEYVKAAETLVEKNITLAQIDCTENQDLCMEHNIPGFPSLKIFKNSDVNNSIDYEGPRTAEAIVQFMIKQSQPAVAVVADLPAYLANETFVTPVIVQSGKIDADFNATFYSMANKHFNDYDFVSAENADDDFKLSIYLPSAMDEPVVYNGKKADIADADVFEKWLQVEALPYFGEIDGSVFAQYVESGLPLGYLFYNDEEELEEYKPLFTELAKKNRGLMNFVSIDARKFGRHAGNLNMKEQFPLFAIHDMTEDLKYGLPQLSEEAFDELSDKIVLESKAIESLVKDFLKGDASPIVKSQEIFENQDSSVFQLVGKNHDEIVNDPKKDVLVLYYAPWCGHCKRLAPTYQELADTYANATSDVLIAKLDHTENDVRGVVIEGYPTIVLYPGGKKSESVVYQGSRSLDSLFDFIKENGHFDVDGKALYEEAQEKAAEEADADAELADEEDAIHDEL"}, "[2]": {"molecular_target": "T2, Eug1 (Saccharomyces cerevisiae, UniProt P32474)", "T2 sequence (P32474 30-517)": "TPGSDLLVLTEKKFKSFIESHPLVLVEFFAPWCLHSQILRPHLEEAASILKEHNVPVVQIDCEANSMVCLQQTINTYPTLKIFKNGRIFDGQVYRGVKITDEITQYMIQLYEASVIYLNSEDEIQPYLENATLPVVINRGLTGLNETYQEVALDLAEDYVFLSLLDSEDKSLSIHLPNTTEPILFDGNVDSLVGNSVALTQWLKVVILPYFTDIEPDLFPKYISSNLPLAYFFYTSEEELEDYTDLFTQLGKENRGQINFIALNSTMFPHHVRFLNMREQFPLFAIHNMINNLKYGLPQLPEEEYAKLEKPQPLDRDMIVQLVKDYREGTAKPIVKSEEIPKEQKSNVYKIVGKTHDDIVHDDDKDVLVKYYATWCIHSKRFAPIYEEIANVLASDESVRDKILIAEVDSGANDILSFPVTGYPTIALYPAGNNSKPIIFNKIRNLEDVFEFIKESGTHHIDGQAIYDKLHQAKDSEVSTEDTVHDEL"}, "[3]": {"molecular_target": "T3, Mpd2 (Saccharomyces cerevisiae, UniProt Q99316)", "T3 sequence (Q99316 23-277)": "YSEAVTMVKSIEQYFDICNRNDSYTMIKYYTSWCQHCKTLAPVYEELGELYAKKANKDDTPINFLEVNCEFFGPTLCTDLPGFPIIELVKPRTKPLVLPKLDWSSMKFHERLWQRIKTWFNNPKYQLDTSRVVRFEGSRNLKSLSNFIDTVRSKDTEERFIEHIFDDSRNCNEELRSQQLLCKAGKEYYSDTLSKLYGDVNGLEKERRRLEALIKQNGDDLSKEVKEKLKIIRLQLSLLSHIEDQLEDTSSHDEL"}, "[4]": {"molecular_target": "T4, Mpd1 (Saccharomyces cerevisiae, UniProt Q12404)", "T4 sequence (Q12404 22-318)": "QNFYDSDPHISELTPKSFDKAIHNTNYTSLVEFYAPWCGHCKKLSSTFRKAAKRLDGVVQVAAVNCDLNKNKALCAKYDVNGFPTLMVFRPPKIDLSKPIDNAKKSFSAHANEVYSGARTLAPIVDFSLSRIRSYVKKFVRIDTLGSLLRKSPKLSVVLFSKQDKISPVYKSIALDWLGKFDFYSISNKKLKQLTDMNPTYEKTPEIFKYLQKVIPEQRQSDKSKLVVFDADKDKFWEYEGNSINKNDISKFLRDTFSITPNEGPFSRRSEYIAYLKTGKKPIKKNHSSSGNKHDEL"}}, "data": [{"smiles": "C1OC1C1CO1", "note": "(stereo not shown) [1,2,3,4-diepoxybutane]", "values": [{"measurement": "cross-linking in cells, immunoblot", "setting": "[1]", "result": "Each of these proteins also underwent protein cross-linking in cells treated with toxic concentrations"}, {"measurement": "cross-linking in cells, immunoblot", "setting": "[2]", "result": "Each of these proteins also underwent protein cross-linking in cells treated with toxic concentrations"}, {"measurement": "cross-linking in cells, immunoblot", "setting": "[3]", "result": "Each of these proteins also underwent protein cross-linking in cells treated with toxic concentrations"}, {"measurement": "cross-linking in cells, immunoblot", "setting": "[4]", "result": "Each of these proteins also underwent protein cross-linking in cells treated with toxic concentrations"}]}]}
